# Where a chain is given by its changes, count along the chain named.
# Experiments:
# [1] = target: T1, deadenylylated WT enzyme, WT (DD) glutamine synthetase (Escherichia coli, UniProt P0A9C5); test: HPLC forward-reaction glutamine synthetase assay with serine protease inhibitors; type: biochemical, E. coli; conditions: 1 mM inhibitor; for % Reduction in ADP-based Specific Activity / % Reduction in Glutamine-based Specific Activity: 60 min pre-incubation, vs no-inhibitor control, positive = activity increased; for % Conversion: glutamine-based divided by ADP-based specific activity
# T1 construct: made in house; host or cells: E. coli carrying pBSK-ECgln (pBluescript II SK+), continuous culture; YMC11 is the expression strain named for this plasmid
# T1 sequence (P0A9C5 2-469 limits assumed): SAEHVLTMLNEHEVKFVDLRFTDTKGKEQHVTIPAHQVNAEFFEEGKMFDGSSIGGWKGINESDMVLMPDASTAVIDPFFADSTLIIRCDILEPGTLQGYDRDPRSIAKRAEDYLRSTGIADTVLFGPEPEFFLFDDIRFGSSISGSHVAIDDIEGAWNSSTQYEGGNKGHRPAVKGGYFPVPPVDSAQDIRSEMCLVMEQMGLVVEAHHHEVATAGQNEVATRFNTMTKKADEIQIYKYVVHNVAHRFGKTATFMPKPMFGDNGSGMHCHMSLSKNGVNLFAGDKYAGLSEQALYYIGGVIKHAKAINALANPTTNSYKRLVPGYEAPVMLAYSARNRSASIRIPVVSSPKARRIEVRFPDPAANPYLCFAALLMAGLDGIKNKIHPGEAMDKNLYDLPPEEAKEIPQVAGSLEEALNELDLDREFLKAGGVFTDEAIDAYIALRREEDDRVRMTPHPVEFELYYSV
# Protocol: (§1) This assay was set up to measure glutamine synthetase activity according to the forward reaction, and measures the amount of glutamine formed from […] of L-glutamate in the presence of MnCO3-ATP (the basis of one reaction) and MgATP (the basis of a second reaction). In addition, the amount of ADP formed is also measured in a separate assay, using the same reagents.
# (§2) All enzyme preparations were adjusted to the same concentration of protein, and added to the assay mixture in a volume of 50 μl. The addition of the enzyme started the reaction, which was then allowed to proceed for 1 hour. The reaction was stopped by the addition of 6 μl of a 50% solution of trichloroacetic acid. Each assay was then aliquoted into 4 HPLC vials (150 μl per vial), two of which were assayed for glutamate and glutamine using a Phenomenex Luna 5 μC18 Column on an Agilent 100 HPLC instrument. The ATP/ADP assays were run on a Chromolith Performance RP-18c column also using an Agilent 100 HPLC instrument.
# (§3) As it is believed that two putative catalytic triads, similar to those in the serine proteases, are involved in the reaction mechanism of glutamine synthetase, certain of the mutants were also assayed by HPLC in the presence of the serine protease inhibitors, AEBSF and PMSF, in order to assess the effect that these inhibitors had on the enzyme. The enzymes assessed were the adenylylated WT enzyme, the deadenylylated WT enzyme, and the mutant enzymes S52A, S52A Y397V, S53A, S53A Y397V, S52A S53A and S52A S53A Y397V. The enzymes were pre-incubated for 60 minutes in the presence of 1 mM PMSF or 1 mM AEBSF. A control reaction was set up for each enzyme, which contained no inhibitor. Each enzyme was then added to assays set up as described above. The assay was allowed to proceed for 60 minutes, then stopped by the addition of […] of 50% TCA, after which they were analysed by HPLC. All assays were run in triplicate.
# (§4) In addition to the γ-glutamyl transferase assays, assays were also developed to measure the rate of conversion of ATP and glutamate to ADP and glutamine by HPLC. These were set up as single assays but analysed separately for glutamate and glutamine and ATP and ADP. The conversion rates for glutamate to glutamine, in both the presence of Mn^2+ and Mg^2+ by glutamine synthetase, is referred to as the […] specific activity and is presented in μmoles/min/mg protein. The conversion rates for ATP to ADP, in both the presence of Mn^2+ and Mg^2+ by glutamine synthetase, is referred to as the ADP-based specific activity and is presented in μmoles/min/mg protein. The percentage of conversion was also calculated by dividing the glutamine-based specific activity by the ADP-based specific activity, and this value is interpreted as the ability of the enzyme to complete both steps of the reaction, i.e., glutamate to glutamine and ATP to ADP, at an equivalent level of efficiency.
# [2] = target: T2, glutamine synthetase mutant S52A S53A Y397V (Escherichia coli, UniProt P0A9C5, S53A/S54A/Y398V); test: as above; type: biochemical, E. coli; conditions: 1 mM inhibitor; for inhibition of the enzyme (in words): HPLC assays; for % Reduction in ADP-based Specific Activity / % Reduction in Glutamine-based Specific Activity / % Conversion: Mn assay; for % Reduction in ADP-based Specific Activity / % Reduction in Glutamine-based Specific Activity: 60 min pre-incubation, vs no-inhibitor control; for % Reduction in Glutamine-based Specific Activity: positive = activity increased; for % Conversion: glutamine-based divided by ADP-based specific activity
# T2 construct: made in house; host or cells: E. coli YMC11 (glutamine synthetase auxotroph), pBluescript II SK+
# T2 sequence (P0A9C5 2-469 S53A/S54A/Y398V limits assumed): T1 sequence (P0A9C5 2-469 limits assumed) with S52A, S53A, Y397V
# Protocol: as §1, §2, §3, §4
Structure (SMILES),% Reduction in ADP-based Specific Activity ([1]; Mg assay),% Reduction in Glutamine-based Specific Activity ([1]; Mg assay),% Conversion ([1]; Mg assay),% Reduction in ADP-based Specific Activity ([1]; Mn assay),% Reduction in Glutamine-based Specific Activity ([1]; Mn assay),% Conversion ([1]; Mn assay),inhibition of the enzyme (in words) [2],% Reduction in ADP-based Specific Activity [2],% Reduction in Glutamine-based Specific Activity [2],% Conversion [2]
O=S(=O)(F)Cc1ccccc1 [PMSF],−6.07%,−16.55%,67%,−3.53%,−17.69%,78%,did not significantly inhibit,−4.83%,−18.20%,62%
NCCc1ccc(S(=O)(=O)F)cc1 [AEBSF],−14.98%,−8.43%,82%,−4.73%,−2.23%,94%,appeared to cause inhibition,−5.20%,−1.65%,75%

# From patent US20100022584A1, “Modulation of Glutamine Synthetase Activity” (priority 2006, published 2010)
